Laboratory results published in patent US10822656B2, “Methods and systems for high-throughput toxicity screening of a compound using mahalanobis values” (priority 2017, dated 2020).

System: human hepatocytes (cell lines Hu1153, Hu1154, Hu1156, Hu1164)
Experiment: Transcriptomics Mahalanobis distance (MD) toxicity analysis of hepatocytes exposed in-vitro
Type: cell-based
Description: In one embodiment, four human donors were used to provide four independent cell lines of hepatocytes.
A number of the 192 genes were analyzed using more than one probe and as a result there were 465 different measurements or variables for each experiment. […] PPARα are nuclear receptor proteins of the hepatocyte that regulate gene expression through transcription factors and are essential in the regulation of lipid metabolism.
The MD is calculated as follows (Taguchi & R. Jungulum, 2002): MDj−Dj^2=Z′ijC^−1Zij, and Equation 1: Zij=(Xij−mi)/si Equation 2: Xij=value of the ith characteristic (gene) of the jth observation (experiment) mi=mean of the ith characteristic (gene) si=standard deviation of the ith characteristic (gene) Zij=(z1j, z2j, z3j, . . . , zkj) standardized vector of the standardized values of the Xij Zij′=transpose of the Zij standardized vector C^−1=inverse of the correlation matrix k=total number of gene measurements (e.g. 465 variables).
Data must be collected to identify the reference group from the unstressed cells. […] The MS will be determined by the normal group's mean and standard deviation vector, and the correlation matrix. The reference group will be referred to as the healthy/normal group. This is the most important aspect of the approach, as this MS will be the reference point in n-space. It is used to compare stressed hepatocyte data collected from the perturbed experiments. The measurement scale extends from the centroid of the MS and is typically one unit distance away. The centroid of the MS is the zero point for the measurement scale. The larger the Mahalanobis distance (MD) number the further it is from the centroid of the Mahalanobis space and the higher the risk from exposure. The Mahalanobis distance for each perturbed experiment will be derived from information describing the MS and will be shown below. The MD is a value that describes the relationship between the normal group and the experiment. As hepatocyte cells are stressed by varying concentrations and times of exposure, the same variables that were measured to establish the MS for the normal group will be used to determine a MD number for the experimental data. […] This MD number will be indicative of the experiments generalized distance from the centroid of the healthy/normal group. As concentration and time of exposure increases the MD number for that experiment could increase or decrease, depending on whether the stress of the genes are increasing or decreasing. In general, unstressed hepatocytes tend to look quite similar to the healthy/normal group, while stressed hepatocytes tend to look quite different from the healthy/normal group and will have a higher MD number. In addition, the changes in correlation structure among the stressed hepatocytes strongly affect the MD number. In the case where a hepatocyte's MD number reaches a predetermined high threshold value, genes may start to mutate rapidly. If the MD number becomes similar to those of the healthy/normal group, the risk associated to exposure by a particular compound could be considered a low risk from exposure.
Referring now to FIG. 14, in one embodiment, 20 different experiments were conducted to build the healthy/normal group where the cells were not exposed to chemical, e.g. GW7647. FIG. 14 is an illustration of a snapshot of the database of Normal Unexposed Observation Data where the transcriptomics data of four cell lines—1153, 1154, 1156, and 1164—are provided across five time periods—2, 6, 12, 24, and 72 hours.
This baseline information is used to determine the amount of stress the exposed cells are experiencing from the reference cell pattern of unstressed cells—the healthy/normal group. All the data collected in the 120 different experiments and 465 variables, used the same units of measure consistent with measuring differential gene expression data. […]

## CC(C)(Sc1ccc(CCN(CCCCC2CCCCC2)C(=O)NC2CCCCC2)cc1)C(=O)O [GW7647]
  share of the 192 significant genes showing up-regulation: Over 80%
0.001 μM of concentration
  threshold level (minimum exposure time with significant response): greater than 72 hours
0.01 μM of concentration
  threshold level (minimum exposure time with significant response): greater than 72 hours
1 μM of concentration
  threshold level (minimum exposure time with significant response): 2 h
10 μM of concentration
  threshold level (minimum exposure time with significant response): 2 h
2 hours of exposure
  threshold level (minimum concentration with significant response, p 0.05): 1 µM
6 hours of exposure
  threshold level (minimum concentration with significant response, p 0.05): 0.1 µM
12 hours of exposure
  threshold level (minimum concentration with significant response, p 0.05): 0.1 µM
24 hours of exposure
  threshold level (minimum concentration with significant response, p 0.05): 0.1 µM
72 hours of exposure
  threshold level (minimum concentration with significant response, p 0.05): 0.1 µM
72 hours of exposure, 10 μM, mean of four cell lines
  MD number relative to baseline MD number of 18.05: 8.4 times
Concentration level 0.01 μM
  stress versus liver cells not exposed (significance of MD number): no significant difference in stress
Concentration level 001 μM (so in the source)
  stress versus liver cells not exposed (significance of MD number): no significant difference in stress
Human cell line 1153, similar for 1154, 1156, 1164
  trend of MD number with time and concentration: increases
Mean of four human cell lines, 465 variables
  trend of average MD number with exposure and concentration: increase
Mean of four human cell lines, 72 hours of exposure, 10 μM, 465 variables
  mean MD number: 151.76
Reduced sample set, only 10 genes, mean of four human cell lines
  trend of average MD number with exposure and concentration: increase
Varying times and concentrations
  genes of significance that exhibited a reaction, of 14,000 genes examined by micro-array: 192 genes
